Legend:
Dihydrofolate reductase [1] = target: T1, Dihydrofolate reductase (Mycobacterium tuberculosis, UniProt P9WNX1); assay: Inhibition of Mycobacterium tuberculosis H37Rv DHFR expressed in Escherichia coli BL21(DE3) assessed as reduction in consumption of NADPH using DHF as substrate preincubated for 1 min followed by DHF addition and measured for 2 mins by spectrophotometric method
T1 sequence (P9WNX1 whole entry): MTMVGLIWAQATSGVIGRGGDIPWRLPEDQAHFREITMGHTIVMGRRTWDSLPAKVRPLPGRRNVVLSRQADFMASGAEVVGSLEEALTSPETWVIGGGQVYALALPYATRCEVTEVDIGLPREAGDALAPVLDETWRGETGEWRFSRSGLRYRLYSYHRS

Dihydrofolate reductase [2] = target: T2, Dihydrofolate reductase (Homo sapiens, UniProt P00374); assay: Inhibition of human DHFR assessed as reduction in consumption of NADPH using DHF as substrate preincubated for 1 min followed by DHF addition and measured for 2 mins by spectrophotometric method
T2 sequence (P00374 whole entry): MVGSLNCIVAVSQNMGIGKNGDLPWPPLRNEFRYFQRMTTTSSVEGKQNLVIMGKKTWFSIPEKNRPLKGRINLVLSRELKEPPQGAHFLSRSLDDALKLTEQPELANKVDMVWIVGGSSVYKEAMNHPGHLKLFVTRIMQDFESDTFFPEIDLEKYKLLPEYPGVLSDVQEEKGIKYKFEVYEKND

[3] = Sub-acute toxicity in albino Wistar rat assessed as adverse effect at 1.25 to 10 mg/kg, po administered for 28 days; format: organism-based; details: in vivo, 672 h
[4] = Sub-acute toxicity in albino Wistar rat assessed as effect on clinical changes at 1.25 to 10 mg/kg, po administered for 28 days; format: organism-based; details: in vivo, 672 h
[5] = Sub-acute toxicity in albino Wistar rat assessed as effect on behavioral changes at 1.25 to 10 mg/kg, po administered for 28 days; format: organism-based; details: in vivo, 672 h
[6] = Sub-acute toxicity in albino Wistar rat assessed as mortality at 1.25 to 10 mg/kg, po administered for 28 days; format: organism-based; details: in vivo, 672 h
[7] = Sub-acute toxicity in albino Wistar rat assessed as effect on food intake at 1.25 to 10 mg/kg, po administered for 28 days measured post last dose; format: organism-based; details: in vivo, 672 h
[8] = Sub-acute toxicity in albino Wistar rat assessed as convulsion at 1.25 to 10 mg/kg, po administered for 28 days; format: organism-based; details: in vivo, 672 h
[9] = Sub-acute toxicity in albino Wistar rat assessed as lethargy at 1.25 to 10 mg/kg, po administered for 28 days; format: organism-based; details: in vivo, 672 h
[10] = Sub-acute toxicity in albino Wistar rat assessed as coma at 1.25 to 10 mg/kg, po administered for 28 days; format: organism-based; details: in vivo, 672 h
[11] = Sub-acute toxicity in albino Wistar rat assessed as change in colour at 1.25 to 10 mg/kg, po administered for 28 days; format: organism-based; details: in vivo, 672 h
[12] = Sub-acute toxicity in albino Wistar rat assessed as change in respiration at 1.25 to 10 mg/kg, po administered for 28 days; format: organism-based; details: in vivo, 672 h
[13] = Sub-acute toxicity in albino Wistar rat assessed as change in autonomic nervous system at 1.25 to 10 mg/kg, po administered for 28 days; format: organism-based; details: in vivo, 672 h
[14] = Sub-acute toxicity in albino Wistar rat assessed as change in central nervous system at 1.25 to 10 mg/kg, po administered for 28 days; format: organism-based; details: in vivo, 672 h
[15] = Sub-acute toxicity in albino Wistar rat assessed as effect on skin at 1.25 to 10 mg/kg, po administered for 28 days; format: organism-based; details: in vivo, 672 h
[16] = Sub-acute toxicity in albino Wistar rat assessed as effect on eyes at 1.25 to 10 mg/kg, po administered for 28 days; format: organism-based; details: in vivo, 672 h
[17] = Sub-acute toxicity in albino Wistar rat assessed as change in serum protein level at 1.25 mg/kg, po administered for 28 days measured post last dose (reference value: […]); format: organism-based; details: in vivo, 672 h
[18] = Sub-acute toxicity in albino Wistar rat assessed as change in SOD level per mg protein at 1.25 mg/kg, po administered for 28 days measured post last dose (reference value: 4.85 +/- 0.34 U); format: organism-based; details: in vivo, 672 h
[19] = Sub-acute toxicity in albino Wistar rat assessed as change in CAT level per mg protein at 1.25 mg/kg, po administered for 28 days measured post last dose (reference value: 28.45 +/- 2.1 U); format: organism-based; details: in vivo, 672 h
[20] = Sub-acute toxicity in albino Wistar rat assessed as change in AST level at 2.5 mg/kg, po administered for 28 days measured post last dose (reference value: 22.5 +/- 1.76 U/L); format: organism-based; details: in vivo, 672 h
[21] = Sub-acute toxicity in albino Wistar rat assessed as change in Urea level at 2.5 mg/kg, po administered for 28 days measured post last dose (reference value: 24.54 +/- 2.12 mg/dl); format: organism-based; details: in vivo, 672 h
[22] = Sub-acute toxicity in albino Wistar rat assessed as change in serum protein level at 2.5 mg/kg, po administered for 28 days measured post last dose (reference value: […]); format: organism-based; details: in vivo, 672 h
[23] = Sub-acute toxicity in albino Wistar rat assessed as change in SOD level per mg protein at 2.5 mg/kg, po administered for 28 days measured post last dose (reference value: 4.85 +/- 0.34 U); format: organism-based; details: in vivo, 672 h
[24] = Sub-acute toxicity in albino Wistar rat assessed as change in AST level at 5 mg/kg, po administered for 28 days measured post last dose (reference value: 25 +/- 1.76 U/L); format: organism-based; details: in vivo, 672 h
[25] = Sub-acute toxicity in albino Wistar rat assessed as change in Urea level at 5 mg/kg, po administered for 28 days measured post last dose (reference value: 24.54 +/- 2.12 mg/dl); format: organism-based; details: in vivo, 672 h
[26] = Sub-acute toxicity in albino Wistar rat assessed as change in hemoglobin level at 5 mg/kg, po administered for 28 days measured post last dose (reference value: 12.14 +/- 1.45 g%); format: organism-based; details: in vivo, 672 h
[27] = Sub-acute toxicity in albino Wistar rat assessed as change in MDA level per mg protein at 5 mg/kg, po administered for 28 days measured post last dose (reference value: 0.91 +/- 0.1 nmol); format: organism-based; details: in vivo, 672 h
[28] = Sub-acute toxicity in albino Wistar rat assessed as change in ALT level at 10 mg/kg, po administered for 28 days measured post last dose (reference value: 12.19 +/- 1.78 U/L); format: organism-based; details: in vivo, 672 h
[29] = Sub-acute toxicity in albino Wistar rat assessed as change in Urea level at 10 mg/kg, po administered for 28 days measured post last dose (reference value: 24.54 +/- 2.12 mg/dl); format: organism-based; details: in vivo, 672 h
[30] = Sub-acute toxicity in albino Wistar rat assessed as change in SOD level per mg protein at 10 mg/kg, po administered for 28 days measured post last dose (reference value: 4.85 +/- 0.34 U); format: organism-based; details: in vivo, 672 h
[31] = Sub-acute toxicity in albino Wistar rat assessed as change in CAT level per mg protein at 10 mg/kg, po administered for 28 days measured post last dose (reference value: 28.45 +/- 2.1 U); format: organism-based; details: in vivo, 672 h

Compound: CC(=O)c1c(C)n(Cc2ccccc2)c2ccc(OCc3cn(-c4ccc(Br)cc4)nn3)cc12
- IC50 (Dihydrofolate reductase [1]): 6.79 µM
- IC50 (Dihydrofolate reductase [2]): 125 µM
- Activity [3]: Non-Toxic
- Activity [4]: Non-Toxic
- Activity [5]: Non-Toxic
- Activity [6]: Non-Toxic
- Activity [7]: Non-Toxic
- Activity [8]: Non-Toxic
- Activity [9]: Non-Toxic
- Activity [10]: Non-Toxic
- Activity [11]: Non-Toxic
- Activity [12]: Non-Toxic
- Activity [13]: Non-Toxic
- Activity [14]: Non-Toxic
- Activity [15]: Non-Toxic
- Activity [16]: Non-Toxic
- Activity [17]: 6.65 mg/dL
- Activity [18]: 4.95 U
- Activity [19]: 29.34 U
- Activity [20]: 24 U/L
- Activity [21]: 26.54 mg/dL
- Activity [22]: 7.32 mg/dL
- Activity [23]: 5.01 U
- Activity [24]: 26.75 U/L
- Activity [25]: 26.43 mg/dL
- Activity [26]: 13.45 g%
- Activity [27]: 1.11 nmol
- Activity [28]: 15.23 U/L
- Activity [29]: 27.54 mg/dL
- Activity [30]: 5.56 U
- Activity [31]: 32.45 U

Source: ChEMBL document CHEMBL4480432, “Expansion of a novel lead targeting M. tuberculosis DHFR as antitubercular agents” (Bioorg Med Chem, 2019)
